Test results as given in US20240335444A1, “MODULATORS OF BCL6 PROTEOLYSIS AND ASSOCIATED METHODS OF USE” (Arvinas Operations, Inc., priority 2023, published 2024).

Experiments:
DLBCL-derived cell lines = experiment: Nine-day cell growth inhibition assay (CellTiter-Glo); assay type: cell-based; details: GCB lines OCI-Ly1, OCI-Ly7, SU-DHL-4, SU-DHL-6 and ABC lines SU-DHL-2, OCI-Ly10; 9 days; top dose 30 nM; concentration dependent
Method: Antiproliferative effects of Compound A on DLBCL-derived cell lines were tested. Nine-day cell growth inhibition assays were conducted using GCB lines OCI-Ly1, OCI-Ly7, SU-DHL-4 and SU-DHL-6 (FIG. 3A), and ABC lines SU-DHL-2 and OCI-Ly10 (FIG. 3B) dosed with a 7-point 3-fold serial dilution of Compound A at a top dose of 30 nM. On days 3 and 6-7, samples were split to new 48-well plates for re-treatment, and 20% to a 96-well plate to measure cell viability using CellTiter-Glo (CTG). Split cells in the 48-well plates were retreated and cultured out to day 9, when 20% of each sample was analyzed by CTG. Dose response was plotted as a percentage of vehicle (DMSO) control (FIG. 3A and FIG. 3B). Graphs are representative of at least two independent proliferation assays per cell line.

OCI-Ly1 = experiment: Tumor growth of DLBCL cell line derived xenograft model OCI-Ly1; assay type: in vivo, mice; details: OCI-Ly1 xenograft, dosing dependent
Method: Mice bearing subcutaneous tumors were orally (po) administered vehicle or Compound A at 1, 3, 10, or 30 mg/kg daily for 22 days (qd×22). Dosing began with tumors at an average of 140 mm^3. […] Statistical analyses were performed using 2-way ANOVA: p<0.0001 (****). Error bars represent standard error of the mean (±SEM).
(§1) Mice bearing subcutaneous tumors were orally (po) administered vehicle or Compound A at 1, 3, or 10 mg/kg bi-daily for 23 days (bid×23). Dosing began with tumors at an average of 170 mm^3. […] FIG. 7C depicts tumor lysate BCL6 protein levels 16-hours post-last dose analyzed by western blotting. Individual tumor BCL6 levels are shown in a scatter plot, mean is represented by the bar, determined by densitometry, normalized to GAPDH loading controls, and shown as a percentage of vehicle. Percent BCL6 degradation (%) relative to vehicle is shown above each arm. Statistical analyses were performed using 2-way ANOVA: p<0.0001 (****). Error bars represent standard error of the mean (±SEM).

OCI-Ly10 = experiment: Tumor growth of DLBCL cell line derived xenograft model OCI-Ly10; assay type: in vivo, mice; details: po 3, 10 or 30 mg/kg bid×28 or 30 mg/kg qd×28, dosing dependent
Method: (§2) Mice bearing subcutaneous tumors were orally (po) administered vehicle or Compound A at 3, 10, or 30 mg/kg bi-daily for 28 days (bid×28) or 30 mg/kg daily for 28 days (qd×28). Dosing began with tumors at an average of 190 mm^3. […] FIG. 10C depicts tumor lysate BCL6 protein levels 16-hours post-last dose analyzed by western blotting. Individual tumor BCL6 levels are shown in a scatter plot, mean is represented by the bar, determined by densitometry, normalized to GAPDH loading controls, and shown as a percentage of vehicle. Percent BCL6 degradation (%) relative to vehicle is shown above each arm. Statistical analyses were performed using 2-way ANOVA: p<0.05 (*), p<0.0001 (****). Error bars represent standard error of the mean (±SEM).

LY6934 = experiment: PDX model of DLBCL, ABC/GCB (LY6934); assay type: in vivo, NOD/SCID or BALB/c Nude Mice; details: 30 mg/kg PO QD×21, compared to vehicle
Method: (§3) HuPrime® Lymphoma Xenograft Models in NOD/SCID or BALB/c Nude Mice, 4/group, were dosed orally (per os, PO) daily for 21 days (QD×21) and tumor measurements were acquired twice per week. […] Data points represent the mean per group and error bars the standard error of the mean.

LY3148 = experiment: PDX model of Burkitt's lymphoma (LY3148); assay type: in vivo, NOD/SCID or BALB/c Nude Mice; details: 30 mg/kg PO QD×21
Method: as §3

BCL6 protein [1] = molecular target: T1, BCL6 protein (Homo sapiens, UniProt P41182); experiment: Tumor lysate BCL6 protein levels in OCI-Ly1 xenograft tumor tissue (western blotting, densitometry); assay type: in vivo, mice; parameters: from tissue; host or cells: subcutaneous xenograft tumors of OCI-Ly1, OCI-Ly7, SU-DHL-2 or OCI-Ly10 cells in mice
Method: Tumor lysate BCL6 protein levels in OCI-Ly1 cell line xenograft tumor tissue was measured following a treatment time-course with Compound A. A single dose of Compound A was orally administered in a vehicle of 40% hydroxypropyl-b-cyclodextrin in pH 3.0 citrate buffer when tumors reached 200-400 mm^3. Tumors were harvested at the indicated timepoints. Tumor tissue lysates were analyzed using western immunoblotting procedures and densitometry. BCL6 levels are normalized to a GAPDH loading control and presented as a percentage (%) of the average of BCL6 levels in the vehicle control group. Percent BCL6 degradation (%) relative to vehicle is shown above each arm. Cells (1×10^7 cells in 50% matrigel+50% RMPI-1640 (phenol red-free)/100 μl/mouse) were implanted on the right flank subcutaneously.
as §1

BCL6 protein [2] = molecular target: T1, BCL6 protein; experiment: Tumor lysate BCL6 protein levels in OCI-Ly10 xenograft (western blotting); assay type: in vivo, mice; parameters: from tissue; host or cells: subcutaneous xenograft tumors of OCI-Ly1, OCI-Ly7, SU-DHL-2 or OCI-Ly10 cells in mice; details: all dose levels, 16-hours post-last dose (FIG. 10C)
Method: as §2

BCL6 protein [3] = molecular target: T1, BCL6 protein; experiment: BCL6 protein degradation in DLBCL cell lines measured by ELISA; assay type: cell-based; parameters: Degradation of BCL6 protein in DLBCL cell lines were measured by ELISA; endogenous in cells; host or cells: OCI-Ly1, Farage, SU-DHL-4, SU-DHL-6, OCI-Ly7, SU-DHL-2, OCI-Ly10

CNC(=O)COc1cc2cc(Nc3nc(N4CCC(O[C@H]5C[C@H](N6CCC(c7ccc8c(c7F)CN(C7CCC(=O)NC7=O)C8=O)CC6)C5)CC4)ncc3Cl)ccc2n(C(C)C)c1=O (stereo partly shown) [Compound A, 2-({6-[(5-chloro-2-{4-[(1r,3r)-3-{4-[2-(2,6-dioxopiperidin-3-yl)-4-fluoro-1-oxo-2,3-dihydro-1H-isoindol-5-yl]piperidin-1-yl}cyclobutoxy]piperidin-1-yl}pyrimidin-4-yl)amino]-2-oxo-1-(propan-2-yl)-1,2-dihydroquinolin-3-yl}oxy)-N-methylacetamide]
DLBCL cell growth (antiproliferative effect) (DLBCL-derived cell lines): significant decrease on DLBCL cells growth
Tumor growth (OCI-Ly1; po 1, 3, 10 or 30 mg/kg daily for 22 days (qd×22)): inhibits the tumor growth
Tumor growth (OCI-Ly1; po 1, 3 or 10 mg/kg bi-daily for 23 days (bid×23)): inhibits the tumor growth
Tumor growth (OCI-Ly10): inhibits the tumor growth
Change in mean tumor volume (LY6934): tumor regression
Change in mean tumor volume (LY3148): tumor regressions
Tumor lysate BCL6 protein level (BCL6 protein [1]; bid×23, 16-hours post-last dose (FIG. 7C)): dose-dependent degradation of BCL6 protein
Time BCL6 protein was kept down (BCL6 protein [1]; single oral dose (FIG. 5)): up to 36 hours
Tumor lysate BCL6 protein level (BCL6 protein [1]; single oral dose, time-course (FIG. 5)): degraded BCL6 protein rapidly
Tumor lysate BCL6 protein level (BCL6 protein [2]): degraded BCL6 protein
BCL6 protein degradation (BCL6 protein [3]; ABC DLBCL cell lines SU-DHL-2, OCI-Ly10, 24 hours (FIG. 2C)): potent BCL6 protein degradation
BCL6 protein degradation (BCL6 protein [3]; GCB DLBCL cell lines Farage, SU-DHL-4, SU-DHL-6, OCI-Ly7, 24 hours (FIG. 2B)): potent BCL6 protein degradation
BCL6 protein degradation (BCL6 protein [3]; OCI-Ly1 cell line, 24-hours treatment, compared to E3-binding deficient analogue (FIG. 2A)): potent BCL6 protein degradation
